Measured values: ChEMBL document CHEMBL1201862, “PubChem BioAssay data set” (2004)
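96-well plates; 48 h exposure; 5 concentrations. Endpoints by linear interpolation between flanking doses. Not reached: highest tested concentration assigned. GI50 marks 50% less growth.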 Active and inactive are the calls of the source. Cut-off read from the data, not from the text of the source: active = GI50 up to about 1.1 µM and inactive = higher.

Experiments:
Test in all cases: growth of human tumour cells (NCI), 48 h
MDA-N = test system: MDA-N
EKVX = test system: EKVX
HL-60 = test system: HL-60
UO-31 = test system: UO-31
RPMI-8226 = test system: RPMI-8226
T47D = test system: T47D
HT-29 = test system: HT-29
BT-549 = test system: BT-549
OVCAR-3 = test system: OVCAR-3
SF-268 = test system: SF-268
UACC-62 = test system: UACC-62
NCI-H522 = test system: NCI-H522
OVCAR-5 = test system: OVCAR-5
SW-620 = test system: SW-620
OVCAR-8 = test system: OVCAR-8
786-0 = test system: 786-0
MDA-MB-435 = test system: MDA-MB-435
SN12C = test system: SN12C
ACHN = test system: ACHN
MDA-MB-231 = test system: MDA-MB-231
NCI-H460 = test system: NCI-H460
NCI/ADR-RES = test system: NCI/ADR-RES
SR = test system: SR
OVCAR-4 = test system: OVCAR-4
NCI-H226 = test system: NCI-H226
HCT-116 = test system: HCT-116
SNB-75 = test system: SNB-75
MCF7 = test system: MCF7
SK-MEL-28 = test system: SK-MEL-28
SK-OV-3 = test system: SK-OV-3
TK-10 = test system: TK-10
LOX IMVI = test system: LOX IMVI
MOLT-4 = test system: MOLT-4
IGROV-1 = test system: IGROV-1
SNB-19 = test system: SNB-19
M14 = test system: M14
SK-MEL-2 = test system: SK-MEL-2
K562 = test system: K562
SK-MEL-5 = test system: SK-MEL-5
DU-145 = test system: DU-145
HOP-92 = test system: HOP-92
KM12 = test system: KM12
HCT-15 = test system: HCT-15
A549 = test system: A549
CCRF-CEM = test system: CCRF-CEM
SF-539 = test system: SF-539
COLO 205 = test system: COLO 205
Hs-578T = test system: Hs-578T
RXF 393 = test system: RXF 393
HOP-62 = test system: HOP-62
U-251 = test system: U-251
Malme-3M = test system: Malme-3M
SF-295 = test system: SF-295
PC-3 = test system: PC-3
UACC-257 = test system: UACC-257
NCI-H23 = test system: NCI-H23
HCC 2998 = test system: HCC 2998
CAKI-1 = test system: CAKI-1
A498 = test system: A498

c1cc2cc3c4c5c(cc6ccc7cc8cc9c%10c8c8c7c6c5c8c5c%10c(c1C9N1CCOCCOCCOCCOCCOCC1)c2c45)C3 (stereo not given)
GI50 (MDA-N): > 100 µM (inactive) | GI50 (EKVX): > 100 µM (inactive) | GI50 (HL-60): > 100 µM (inactive) | GI50 (UO-31): > 100 µM (inactive) | GI50 (RPMI-8226): > 100 µM (inactive) | GI50 (T47D): > 100 µM (inactive) | GI50 (HT-29): > 100 µM (inactive) | GI50 (BT-549): > 100 µM (inactive) | GI50 (OVCAR-3): > 100 µM (inactive) | GI50 (SF-268): > 100 µM (inactive) | GI50 (UACC-62): > 100 µM (inactive) | GI50 (NCI-H522): > 100 µM (inactive) | GI50 (OVCAR-5): > 100 µM (inactive) | GI50 (SW-620): > 100 µM (inactive) | GI50 (OVCAR-8): > 100 µM (inactive) | GI50 (786-0): > 100 µM (inactive) | GI50 (MDA-MB-435): > 100 µM (inactive) | GI50 (SN12C): > 100 µM (inactive) | GI50 (ACHN): > 100 µM (inactive) | GI50 (MDA-MB-231): > 100 µM (inactive) | GI50 (NCI-H460): > 100 µM (inactive) | GI50 (NCI/ADR-RES): > 100 µM (inactive) | GI50 (SR): > 100 µM (inactive) | GI50 (OVCAR-4): > 100 µM (inactive) | GI50 (NCI-H226): > 100 µM (inactive) | GI50 (HCT-116): > 100 µM (inactive) | GI50 (SNB-75): > 100 µM (inactive) | GI50 (MCF7): > 100 µM (inactive) | GI50 (SK-MEL-28): > 100 µM (inactive) | GI50 (SK-OV-3): > 100 µM (inactive) | GI50 (TK-10): > 100 µM (inactive) | GI50 (LOX IMVI): > 100 µM (inactive) | GI50 (MOLT-4): > 100 µM (inactive) | GI50 (IGROV-1): > 100 µM (inactive) | GI50 (SNB-19): > 100 µM (inactive) | GI50 (M14): > 100 µM (inactive) | GI50 (SK-MEL-2): > 100 µM (inactive) | GI50 (K562): > 100 µM (inactive) | GI50 (SK-MEL-5): 78.9 µM (inactive) | GI50 (DU-145): > 100 µM (inactive) | GI50 (HOP-92): > 100 µM (inactive) | GI50 (KM12): > 100 µM (inactive) | GI50 (HCT-15): > 100 µM | GI50 (A549): > 100 µM (inactive) | GI50 (CCRF-CEM): > 100 µM (inactive) | GI50 (SF-539): > 100 µM (inactive) | GI50 (COLO 205): > 100 µM (inactive) | GI50 (Hs-578T): > 100 µM (inactive) | GI50 (RXF 393): > 100 µM (inactive) | GI50 (HOP-62): > 100 µM (inactive) | GI50 (U-251): > 100 µM (inactive) | GI50 (Malme-3M): > 100 µM (inactive) | GI50 (SF-295): > 100 µM (inactive) | GI50 (PC-3): > 100 µM (inactive) | GI50 (UACC-257): > 100 µM (inactive) | GI50 (NCI-H23): > 100 µM (inactive) | GI50 (HCC 2998): > 100 µM (inactive)

Nc1nc(Cl)cc(NCC2(CO)CCC(Cc3ccccc3)C2)n1 (stereo not given)
GI50 (MDA-N): 23.1 µM (inactive) | GI50 (EKVX): 8.71 µM (inactive) | GI50 (HL-60): 2.69 µM (inactive) | GI50 (UO-31): 38.3 µM (inactive) | GI50 (RPMI-8226): 12 µM (inactive) | GI50 (T47D): 6.5 µM (inactive) | GI50 (HT-29): 19.1 µM (inactive) | GI50 (BT-549): 16.2 µM (inactive) | GI50 (OVCAR-3): 43.1 µM (inactive) | GI50 (SF-268): 30.1 µM (inactive) | GI50 (UACC-62): 11.9 µM (inactive) | GI50 (NCI-H522): 10.1 µM (inactive) | GI50 (OVCAR-5): 33.3 µM (inactive) | GI50 (SW-620): 15 µM (inactive) | GI50 (OVCAR-8): 15.6 µM (inactive) | GI50 (786-0): 27.7 µM (inactive) | GI50 (MDA-MB-435): 7.73 µM (inactive) | GI50 (SN12C): 52.7 µM (inactive) | GI50 (ACHN): 20 µM (inactive) | GI50 (MDA-MB-231): 33 µM (inactive) | GI50 (NCI-H460): 18.6 µM (inactive) | GI50 (NCI/ADR-RES): 20.3 µM (inactive) | GI50 (CAKI-1): 19.3 µM (inactive) | GI50 (OVCAR-4): 13.6 µM (inactive) | GI50 (NCI-H226): 22.3 µM (inactive) | GI50 (HCT-116): 15.5 µM (inactive) | GI50 (A498): 12.6 µM (inactive) | GI50 (SNB-75): 33.6 µM (inactive) | GI50 (MCF7): 11.2 µM (inactive) | GI50 (SK-MEL-28): 37.5 µM (inactive) | GI50 (SK-OV-3): 36 µM (inactive) | GI50 (TK-10): 26 µM (inactive) | GI50 (LOX IMVI): 8.59 µM (inactive) | GI50 (MOLT-4): 3.74 µM (inactive) | GI50 (IGROV-1): 26.5 µM (inactive) | GI50 (SNB-19): 33.5 µM (inactive) | GI50 (M14): 18.7 µM (inactive) | GI50 (SK-MEL-2): 23.6 µM (inactive) | GI50 (K562): 1.21 µM (inactive) | GI50 (SK-MEL-5): 0.671 µM (active) | GI50 (DU-145): 27.8 µM (inactive) | GI50 (HOP-92): 20.6 µM (inactive) | GI50 (KM12): 20.2 µM (inactive) | GI50 (HCT-15): 27.4 µM | GI50 (A549): 16.3 µM (inactive) | GI50 (CCRF-CEM): 6.68 µM (inactive) | GI50 (SF-539): 29 µM (inactive) | GI50 (COLO 205): 12.8 µM (inactive) | GI50 (Hs-578T): 25.4 µM (inactive) | GI50 (RXF 393): 28.5 µM (inactive) | GI50 (HOP-62): 32.7 µM (inactive) | GI50 (U-251): 25.6 µM (inactive) | GI50 (Malme-3M): 10.2 µM (inactive) | GI50 (SF-295): 10.1 µM (inactive) | GI50 (PC-3): 26.7 µM (inactive) | GI50 (UACC-257): 2.78 µM (inactive) | GI50 (NCI-H23): 2.87 µM (inactive) | GI50 (HCC 2998): 25.8 µM (inactive)
